pIC50: −log10 of the molar value.
Tests used:
Type in all cases: cell-based
[1] = tested on: SH-SY5Y (human neuroblastoma) cells; assay: Cell viability, Cell Titer Glo 2.0 assay; conditions: read-out: Viability SHSY5Y.3 GI50
Procedure, shortened: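 SH-SY5Y cells were exposed to serially diluted compounds in IMDM with 10% FBS and 0.1% DMSO for 72 hours at 37° C., 5% CO2. Viability was measured by CellTiter-Glo 2.0 luminescence, with medium-only wells as blank.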

HTT mRNA [2] = assay: Splicing RT-qPCR assay (THP), Table 2A; conditions: Table 2A, THP; for AC50: HTT alternative junction (AJ) mRNA, read-out: HTT AJ (AC50, increase in alternative junction mRNA); for pIC50: HTT canonical junction (CJ) mRNA, read-out: HTT CJ (IC50, decrease in canonical junction mRNA)
MYB mRNA [3] = assay: Splicing RT-qPCR assay (THP), Table 2A; conditions: Table 2A, THP; for AC50: MYB alternative junction (AJ) mRNA, read-out: MYB AJ (AC50, increase in alternative junction mRNA); for pIC50: MYB canonical junction (CJ) mRNA, read-out: MYB CJ (IC50, decrease in canonical junction mRNA)
MYB mRNA [4] = assay: Gene panel canonical junction qPCR assay, decrease in CJ mRNA, Table 3; conditions: decrease in CJ mRNA levels, canonical junction qPCR, gene panel
Procedure, shortened: (§1)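 Canonical exon-junction (CJ) transcript measured by 5′ nuclease RT-qPCR, normalized to GAPDH, GUSB or PPIA and to DMSO control (2^(−ΔΔCt)). A673 or K562 cells treated 24 h at 37° C with an 11-point 3-fold dilution series, top 10 uM, DMSO ≤0.25%. IC50 from 4-parameter logistic fit of percentage CJ decrease.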

HTT mRNA [5] = assay: as above; conditions: decrease in CJ mRNA levels, canonical junction qPCR, gene panel
Procedure, shortened: as §1

Row | Compound | GI50 [1] [nM] | AC50 (HTT mRNA [2]) [nM] | pIC50 (HTT mRNA [2]) | AC50 (MYB mRNA [3]) [nM] | pIC50 (MYB mRNA [3]) | pIC50 (MYB mRNA [4]) | pIC50 (HTT mRNA [5])
1 | COc1cc2c(N3CCC(NC4CC4)CC3)ccc(C(=O)Nc3cc(CNS(C)(=O)=O)c4nc(C)cn4c3)n2n1 [Compound 838] | 1000 to 10000 | > 10000 | < 5.00 | 1000 to 10000 | 5.00 to 6.00 | 5.00 to 6.00 | < 5.00
2 | Cc1cn2c(N3CCC(NC4CC4)CC3)ccc(C(=O)Nc3cc(CNS(C)(=O)=O)c4nn(C)cc4c3)c2n1 [Compound 839] | 1000 to 10000 | 1000 to 10000 | 5.00 to 6.00 | 100 to 1000 | 6.00 to 7.00 | 6.00 to 7.00 | 5.00 to 6.00
3 | Cn1cc2cc(NC(=O)c3ccc(N4CCC(NC5CC5)CC4)c4cn(C)nc34)cc(CCNS(C)(=O)=O)c2n1 [Compound 840] | > 10000 | > 10000 | 5.00 to 6.00 | 1000 to 10000 | 5.00 to 6.00 | 5.00 to 6.00 | 5.00 to 6.00
4 | CN(C)c1ccc(C(=O)Nc2cc(CNS(C)(=O)=O)c3nn(C)cc3c2)c2nn(C)cc12 [Compound 841] | > 10000 | > 10000 | < 5.00 | > 10000 | < 5.00 | < 5.00 | < 5.00
5 | Cc1cn2nc(NC(=O)c3ccc(N4CCC(NC5CC5)CC4)c4cn(C)nc34)cc(CNS(C)(=O)=O)c2n1 [Compound 842] | 1000 to 10000 | > 10000 | < 5.00 | > 10000 | < 5.00 | < 5.00 | < 5.00
6 | COc1nc2c(C(=O)Nc3cc(CNS(C)(=O)=O)c4nn(C)cc4c3)ccc(N3CCC(NC4CC4)CC3)c2s1 [Compound 843] | > 10000 | > 10000 | < 5.00 | > 10000 | < 5.00 | < 5.00 | < 5.00
7 | Cn1cc2cc(NC(=O)c3ccc(N4CCCCC4)c4cn(C)nc34)cc(CNS(C)(=O)=O)c2n1 [Compound 844] | 1000 to 10000 | > 10000 | < 5.00 | > 10000 | < 5.00 | < 5.00 | < 5.00
8 | Cc1cn2cc(NC(=O)c3ccc(N4CCCCC4)c4cn(C)nc34)nc2c(CNS(C)(=O)=O)n1 [Compound 845] | 1000 to 10000 | > 10000 | < 5.00 | > 10000 | < 5.00 | < 5.00 | < 5.00
9 | Cc1cn2cc(NC(=O)c3ccc(N4CCC(NC5CC5)CC4)c4cn(C)nc34)nc2c(CO)n1 [Compound 846, 4-[4-(cyclopropylamino)-1-piperidyl]-N-[8-(hydroxymethyl)-6-methyl-imidazo[1,2-a]pyrazin-2-yl]-2-methyl-indazole-7-carboxamide] | 100 to 1000 | 100 to 1000 | 6.00 to 7.00 | 100 to 1000 | 6.00 to 7.00 | 6.00 to 7.00 | 6.00 to 7.00
10 | COc1cc2c(N3CCC(NC4CC4)CC3)ccc(C(=O)Nc3cc(CO)c4nn(C)cc4c3)n2n1 [Compound 847] | 100 to 1000 | 100 to 1000 | 6.00 to 7.00 | < 100 | > 7.00 | > 7.00 | 6.00 to 7.00
11 | CNC1CCN(c2ccc(C(=O)Nc3cn4cc(C)nc(CNS(C)(=O)=O)c4n3)c3nn(C)cc23)C1 (stereo not shown) [Compound 848, N-[8-(methanesulfonamidomethyl)-6-methyl-imidazo[1,2-a]pyrazin-2-yl]-2-methyl-4-[3-(methylamino)pyrrolidin-1-yl]indazole-7-carboxamide] | 100 to 1000 | 100 to 1000 | 6.00 to 7.00 | 100 to 1000 | 6.00 to 7.00 | 6.00 to 7.00 | 6.00 to 7.00
12 | CNC1CN(c2ccc(C(=O)Nc3cn4cc(C)nc(CNS(C)(=O)=O)c4n3)c3nn(C)cc23)C1 [Compound 849] | 100 to 1000 | 100 to 1000 | 6.00 to 7.00 | 100 to 1000 | 6.00 to 7.00 | 6.00 to 7.00 | 6.00 to 7.00
13 | CCNC1CCN(c2ccc(C(=O)Nc3cn4ccnc(CNS(C)(=O)=O)c4n3)c3nn(C)cc23)CC1 [Compound 850] | > 10000 | > 10000 | < 5.00 | > 10000 | < 5.00 | < 5.00 | < 5.00
14 | Cc1cn2cc(NC(=O)c3ccc(N4CCC(N(C)C)CC4)c4cn(C)nc34)nc2c(CNS(C)(=O)=O)n1 [Compound 851] | > 10000 | > 10000 | < 5.00 | > 10000 | < 5.00 | < 5.00 | < 5.00
15 | Cn1cc2cc(NC(=O)c3c(O)cc(N4CCC(NC5CC5)CC4)c4cn(C)nc34)cc(CNS(C)(=O)=O)c2n1 [Compound 852] | 1000 to 10000 | 1000 to 10000 | < 5.00 | 100 to 1000 | 6.00 to 7.00 | 6.00 to 7.00 | < 5.00
16 | COc1cc(N2CCC(NC3CC3)CC2)c2cn(C)nc2c1C(=O)Nc1cc(CNS(C)(=O)=O)c2nn(C)cc2c1 [Compound 853] | > 10000 | > 10000 | < 5.00 | > 10000 | < 5.00 | < 5.00 | < 5.00
17 | C=CCNC1CCN(c2cc(O)c(C(=O)Nc3cc(CNS(C)(=O)=O)c4nn(C)cc4c3)c3nn(C)cc23)CC1 [Compound 854] | 1000 to 10000 | 1000 to 10000 | < 5.00 | 100 to 1000 | 6.00 to 7.00 | 6.00 to 7.00 | < 5.00
18 | COc1nc2c(C(=O)Nc3cc(CNS(C)(=O)=O)c4nc(C)cn4c3)ccc(N3CCC(NC4CC4)CC3)c2s1 [Compound 855] | 1000 to 10000 | 1000 to 10000 | 5.00 to 6.00 | 1000 to 10000 | 5.00 to 6.00 | 5.00 to 6.00 | 5.00 to 6.00
19 | CCNC1CCN(c2ccc(C(=O)Nc3cn4cc(C)nc(CC(=O)N(C)C)c4n3)c3nn(C)cc23)CC1 [Compound 856] | 1000 to 10000 | 1000 to 10000 | 5.00 to 6.00 | 1000 to 10000 | 5.00 to 6.00 | 5.00 to 6.00 | 5.00 to 6.00
20 | CCNC1CCN(c2ccc(C(=O)Nc3cn4cc(C)nc(CC(N)=O)c4n3)c3nn(C)cc23)CC1 [Compound 857] | > 10000 | > 10000 | < 5.00 | > 10000 | < 5.00 | < 5.00 | < 5.00
21 | Cc1cc2c(N3CCC(NC4CC4)CC3)ccc(C(=O)Nc3cc(CO)c4nn(C)cc4c3)n2n1 [Compound 858] | 100 to 1000 | 1000 to 10000 | 5.00 to 6.00 | 100 to 1000 | 6.00 to 7.00 | 6.00 to 7.00 | 5.00 to 6.00
22 | Cc1cn2c(N3CCC(NC4CC4)CC3)ccc(C(=O)Nc3cc(CO)c4nn(C)cc4c3)c2n1 [Compound 859] | 1000 to 10000 | 1000 to 10000 | 5.00 to 6.00 | 100 to 1000 | 6.00 to 7.00 | 6.00 to 7.00 | 5.00 to 6.00
23 | Cc1cn2cc(NC(=O)c3ccc(N4CCC(NC5CC5)CC4)c4cn(C)nc34)nc2c(CNc2nccs2)n1 [Compound 860] | 1000 to 10000 | > 10000 | < 5.00 | > 10000 | < 5.00 | < 5.00 | < 5.00
24 | Cn1cc2cc(NC(=O)c3ccc(N4CCC(NC5CC5)CC4)c4cn(C)nc34)cc(CNc3ncccn3)c2n1 [Compound 861, 4-[4-(cyclopropylamino)-1-piperidyl]-2-methyl-N-[2-methyl-7-[(pyrimidin-2-ylamino)methyl]indazol-5-yl]indazole-7-carboxamide] | 1000 to 10000 | > 10000 | 5.00 to 6.00 | 100 to 1000 | 6.00 to 7.00 | 6.00 to 7.00 | 5.00 to 6.00
25 | COc1nc2c(C(=O)Nc3cc(CO)c4nn(C)cc4c3)ccc(N3CCC(NC4CC4)CC3)c2s1 [Compound 862] | 100 to 1000 | 100 to 1000 | 6.00 to 7.00 | 100 to 1000 | 6.00 to 7.00 | 6.00 to 7.00 | 6.00 to 7.00
26 | CNCC1CN(c2ccc(C(=O)Nc3cn4cc(C)nc(CNS(C)(=O)=O)c4n3)c3nn(C)cc23)C1 [Compound 863] | > 10000 | > 10000 | < 5.00 | > 10000 | < 5.00 | < 5.00 | < 5.00
27 | CCNC1(C)CCN(c2ccc(C(=O)Nc3cn4cc(C)nc(CNS(C)(=O)=O)c4n3)c3nn(C)cc23)CC1 [Compound 864] | > 10000 | > 10000 | < 5.00 | 1000 to 10000 | 5.00 to 6.00 | 5.00 to 6.00 | < 5.00
28 | Cc1cn2cc(NC(=O)c3ccc(N4CCC(N)CC4)c4cn(C)nc34)nc2c(CNS(C)(=O)=O)n1 [Compound 865, 4-(4-amino-1-piperidyl)-N-[8-(methanesulfonamidomethyl)-6-methyl-imidazo[1,2-a]pyrazin-2-yl]-2-methyl-indazole-7-carboxamide] | > 10000 | > 10000 | < 5.00 | 1000 to 10000 | 5.00 to 6.00 | 5.00 to 6.00 | < 5.00
